According to patent US8436002B2, “AKT inhibitors” (Eli Lilly and Company, priority 2009, dated 2013):
Read-outs that look alike come from different tables or passages of the source.

Key:
[1] = system: H1155; assay: Cell proliferation combination study (CellTiter-Glo); format: cell-based
Experimental: (§1) The proliferation assay uses the CellTiter-Glo Luminescent Cell Viability Assay System (commercially available from Promega) to determine the cell number of viable cells in culture based on quantitation of the ATP present, which signals the presence of metabolically active cells.
(§2) The cells are plated in 96-well plate at 2000 cells/well in volume of 50 μL medium (DMEM, 10% FBS, 25 mM HEPES, 1.0 mM Sodium Pyruvate, and 0.1 mM Non Essential Amino Acids) except column 1 with medium only as blank control. The plates are incubated overnight at 37° C. and 5% CO2. On the next day, compound stocks are prepared at 40 mM in DMSO (500×) and serially diluted in DMSO in a 96-well round bottom polypropylene plate. Compounds are assayed at 10 concentrations in duplicate, 4 compounds per plate.
(§3) 4 μL of the serial DMSO dilutions are transferred to a 96 deep-well plate and 1 mL complete culture medium is added to create 2× stock for dosing. 50 μL of each 2× dosing stock is gently transferred to the corresponding well of the cell plate resulting in a 0.2% DMSO concentration and a 100 μL final volume. […] medium are added to the Control columns (Column 12) and background columns (Column 1). Cells are incubated with compound for at 37° C., 5% CO2 for 72 hr.
(§4) After incubation, 100 μL of the pre-prepared CellTiter-Glo reagent (Promega, Cat: G7571) is added in each well and then the cells are homogenized by mixing on an orbital shaker for 2 min and incubated at RT for 10 minutes to allow luminescent signal stabilization Luminescent raw data is recorded on Wallac Victor V plate reader and the IC50 value for each compound is generated using percent inhibition data. A four-parameter logistic curve is fit to each dose response.
(§5) Combination studies use the fixed ratio method, where the other therapeutic agent and the compound of the present invention are present in fixed ratios of concentrations corresponding to the IC50 equivalents of single agents. The read out for the combination studies is cell proliferation in respective cell lines using Cell Titer Glo reagents. Controls are processed similarly but without the compounds. Analysis of the data is done according to the method described in Zhao et. Al. (Clinical Cancer Research 10, 7994-8004, Dec. 1, 2004) utilizing an internally developed web based tool. A combination index is calculated for each cell proliferation inhibition activity level according to the equation below. Combination Index at activity level x=[Concentration of other therapeutic agent in the combination at the activity level x/ICx of the other therapeutic agent]+[Concentration of the compound of the present invention in the combination at the activity level x/ICx of the compound of the present invention]

[2] = system: MCF-7; assay: as above; format: cell-based; settings: with Paclitaxel
Experimental: as §1, §2, §3, §4, §5

[3] = system: MDA-MB-231; assay: as above; format: cell-based; settings: with Paclitaxel
Experimental: as §1, §2, §3, §4, §5

[4] = system: AKT; assay: AKT In Vivo Target Inhibition (Oral and Parenteral), U87MG tumors in athymic nude mice; settings: Mus musculus, U-87 MG, after 2 hours at 12.5 mg/kg, mean of 6 animals per group
Experimental: U87MG human glioblastoma cells (5×106) are subcutaneously implanted into the flank of athymic nude mice in 0.2 mL of matrigel. Two weeks post-implantation, mice are dosed orally or parenterally according to a time course, single dose/single time point, or dose response protocol for the determination of TMED50 (threshold minimum effective dose). Tumors are flash frozen at harvest and blood is collected for the determination of parent compound plasma exposure and the calculation of TMEC50 (threshold minimum effective concentration) in the case of dose response studies. Tumors or tissues are pulverized in liquid N2 and lysed in 400 μL of XY Lysis Buffer (10 μg/mL Leupeptin, 10 μg/mL Trypsin-Chymotrypsin Inhibitor, 10 μg/mL Tosyl phenyl-alanyl chloromethyl ketone, 10 μg/mL Aprotinin, 60 mM Beta-Glycerol Phosphate, 1% Triton X100, 25 mM Tris pH 7.5, 2.5 mM Pyrophosphate, 150 mM NaCl, 2 mM p-tosyl-L-arginine methyl ester, 15 mM para-nitrophenyl phosphate, 5 mM Benzamidine, 1 mM Na Vanadate, 10 mM NaF, 50 μg/mL phenyl-methane sulfonyl fluoride, 1 mM 1,4-Dithiothreitol (DTT), 15 mM EDTA pH 8.0, 5 mM EGTA pH 8.0, 1 μM Microcystin, 1 μM Okadaic Acid, and 1 Roche Complete protease inhibitor mini-tablet per 10 mL) using Lysing Matrix D tubes (MP Biomedicals, Solon, Ohio, cat #6913-500) and a BIO101 Thermo Savant Fast Prep FP12. Lysates are aliquoted and either assayed immediately or stored at −80° C. for later testing. In Vivo Target Inhibition of AKT is measured utilizing Meso Scale Discovery (Gaithersburg, Md.) ELISA technology to assess effects on phosphorylation of the downstream effectors FOXO, PRAS40 and GSK3β(S9). In summary, 20 μg of lysate is added to carbon electrode containing 96-well plates pre-spotted with the appropriate capture antibodies. The protein of interest is probed using a ruthenium labeled detection antibody. Upon the passage of current over the electrode in the presence of read buffer containing the co-reactant TPA, electro-chemiluminescence results in the generation of light which is quantified and recorded using the MSD Sector 6000 instrument. For each study, percent inhibitions are calculated relative to the vehicle control group and ANOVA analysis is performed using the JMP software package for the determination of statistical significance.

[5] = molecular target: T1, hAKT1 Human Recombinant (Homo sapiens, UniProt P31749); assay: AKT1 In Vitro Enzyme Assay (Transcreener Kinase ADP-FP); format: biochemical; settings: 20 micromolar ATP; read-out: IC50 against AKT1
T1 construct: His tag; host or cells: insect cells
Experimental: Compound IC50 values against AKT1 target are determined using the AKT1 Transcreener™ Kinase ADP-FP Assay. This assay assesses the activity of AKT1 in the presence of compound inhibitors by measuring the concentration of adenosine diphosphate (ADP) formed in a kinase reaction. The kinase reactions (25 μL reaction volumes) are performed in 96-well half-area black polystyrene plates. Adenosine triphosphate (ATP) is added to start the reactions. Final reaction conditions are 56 millimolar N-2-hydroxyethylpiperazine-N′-2-ethanesulfonic acid (HEPES) pH 7.4, 0.008% TRITON™ X-100, 5 millimolar magnesium chloride, 30 micromolar Crosstide peptide, 20 micromolar ATP, hAKT1 Human Recombinant, V-AKT Murine Thymoma Viral Oncogene Homolog 1, histidine-tagged, expressed in insect cells, 4% dimethylsulfoxide and serial dilutions of compound (diluted 1:3 from 20,000 to 1 nanomolar). […] Quenched reactions are incubated for 4-16 hours, and then read in a Tecan Ultra Evolution plate reader in Fluorescence Polarization mode using polarizing filters of Ex612 nm and Em633 nm wavelength. […] The IC50 value for each compound is derived using percent inhibition data which is calculated using the micromolar ADP reaction data relative to on-plate controls (active enzyme versus 100 millimolar inhibited enzyme controls). […]

[6] = system: phosphorylated GSK3β (S9) in U87MG cells; assay: AlphaScreen SureFire detection of phosphorylated GSK3β (S9) in U87MG cells; format: cell-based; settings: Homo sapiens, U-87 MG, 1 hour, read-out: IC50, formation of phosphorylated GSK3β (S9)
Experimental: The effect of compounds on the formation of endogenous phosphorylated GSK3β serine 9 (pGSK3β) are measured using the AlphaScreen SureFire® for pGSK3β(TGRGBS10K). This is a homogeneous assay format using immuno-sandwich capture of the phosphorylated analyte followed by detection using antibody-coated Alphascreen beads to generate an amplified signal.
U87MG cells are maintained in U87MG growth medium consisting of DMEM supplemented with 10% Fetal bovine serum, 1% Nonessential amino acids and 1% sodium pyruvate. For the assay, cells are harvested by standard procedures and then counted using Vi-Cell. Cells (50,000/well) are plated in 100 μL of U87MG growth medium into Costar #3596 96 well plates. Plates are incubated overnight at 37° C., 5% CO2.
On the day of the assay, cells are treated with 20 μL/well compound diluted in media containing 6% dimethylsulfoxide. […] The plate is sealed with foil, incubated at room temperature for 4 hours with gentle shaking and then read on Perkin Elmer EnVision equipped with a TurboModule using standard AlphaScreen® settings (Ex680 nm and Em520-620 nm). The percent inhibition determined from controls on each plate and ten-point compound concentration data are then fit to a four-parameter logistic equation using ACTIVITYBASE 4.0 (Assay Guidance Manual Version 5.0, 2008, Eli Lilly and Company and NIH Chemical Genomics Center).

[7] = molecular target: T2, ROCK2 Human recombinant enzyme (Homo sapiens, UniProt O75116); assay: ROCK2 In Vitro Enzyme Assay (Transcreener Kinase ADP-FP); format: biochemical; settings: 10 micromolar ATP; read-out: IC50 against ROCK2
T2 construct: ROCK2 Human recombinant enzyme (residues 11-552, histidine-tagged, expressed in insect cells); His tag; host or cells: insect cells
Experimental: Compound IC50 values against ROCK2 kinase are determined using the ROCK2 Transcreener™ Kinase ADP-FP Assay. This assay assesses the activity of ROCK2 in the presence of compound inhibitors by measuring the concentration of ADP formed in a kinase reaction. The kinase reactions (25 μL reaction volumes) are performed in 96-well half-area black polystyrene plates. Enzyme is added to start the reactions. Final reaction conditions are 20 millimolar 3-(N-Morpholino)-propanesulfonic acid pH 7.4, 4 millimolar beta-glycero-phosphate, 0.01% TRITON™ X-100, 5 millimolar magnesium chloride, 25 micromolar peptide substrate (sequence RFARKGSLRQKNV (SEQ ID NO:1)), 10 micromolar ATP, ROCK2 Human recombinant enzyme (residues 11-552, histidine-tagged, expressed in insect cells), 4% dimethysulfoxide and serial dilutions of compound (diluted 1:3 from 20,000 to 1 nanomolar). […] Quenched reactions are incubated for 4-16 hours, and then read in a Tecan Ultra Evolution plate reader in Fluorescence Polarization mode using polarizing filters of Ex612 nm and Em633 nm wavelength. […] The IC50 value for each compound is derived using percent inhibition data which is calculated using the micromolar ADP reaction data relative to on-plate controls (active enzyme versus 100 millimolar EDTA-inhibited enzyme controls). […]

T1 sequence (P31749 whole entry): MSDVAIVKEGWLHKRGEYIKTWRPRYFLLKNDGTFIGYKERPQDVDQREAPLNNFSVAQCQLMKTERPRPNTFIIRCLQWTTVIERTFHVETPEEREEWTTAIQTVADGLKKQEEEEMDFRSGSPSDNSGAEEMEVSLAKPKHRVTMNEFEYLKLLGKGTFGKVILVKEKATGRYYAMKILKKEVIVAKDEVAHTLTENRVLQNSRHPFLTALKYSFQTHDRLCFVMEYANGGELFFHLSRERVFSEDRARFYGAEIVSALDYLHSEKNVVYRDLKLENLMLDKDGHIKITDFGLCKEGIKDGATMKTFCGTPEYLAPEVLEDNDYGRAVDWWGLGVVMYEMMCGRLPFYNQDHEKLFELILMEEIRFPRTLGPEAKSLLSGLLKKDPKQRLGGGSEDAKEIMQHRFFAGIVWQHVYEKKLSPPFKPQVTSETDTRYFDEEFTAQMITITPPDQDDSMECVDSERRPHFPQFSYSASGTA
T2 sequence (O75116 11-552): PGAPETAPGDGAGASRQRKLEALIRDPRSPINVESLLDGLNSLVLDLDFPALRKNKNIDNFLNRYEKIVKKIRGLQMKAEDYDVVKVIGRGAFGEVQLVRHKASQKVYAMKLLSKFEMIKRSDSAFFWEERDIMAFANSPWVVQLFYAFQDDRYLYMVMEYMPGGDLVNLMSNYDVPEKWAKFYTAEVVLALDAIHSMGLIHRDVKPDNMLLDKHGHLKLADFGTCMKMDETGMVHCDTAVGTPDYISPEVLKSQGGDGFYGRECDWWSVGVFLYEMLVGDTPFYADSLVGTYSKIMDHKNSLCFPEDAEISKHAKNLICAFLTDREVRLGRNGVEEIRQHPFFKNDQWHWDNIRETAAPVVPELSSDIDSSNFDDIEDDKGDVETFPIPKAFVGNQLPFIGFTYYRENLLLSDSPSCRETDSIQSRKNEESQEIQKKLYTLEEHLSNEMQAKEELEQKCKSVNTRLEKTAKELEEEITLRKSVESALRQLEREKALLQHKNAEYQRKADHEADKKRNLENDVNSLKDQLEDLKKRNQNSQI

For C[C@@H]1CC(=O)Nc2ncnc(N3CCC(c4nc(C5CCOCC5)cn4CCN4CCCC4)CC3)c21 [Example 73, (R)-5-Methyl-4-(4-(1-(2-(pyrrolidin-1-yl)ethyl)-4-(tetrahydro-2H-pyran-4-yl)-1H-imidazol-2-yl)piperidin-1-yl)-5,6-dihydropyrido[2,3-d]pyrimidin-7(8H)-one], the “Combination Index at 50% Inhibition” value ([1]; with Cisplatin) was 0.82, the “Combination Index at 50% Inhibition” value ([1]; with Gemcitabine) was 0.87 and the “Combination Index at 50% Inhibition” value ([1]; with Pemetrexed) was 0.29. For the same compound, the “Combination Index at 50% Inhibition” value [2] was 0.56 and the “Combination Index at 50% Inhibition” value [3] was 1.25.

CCc1cn(CCN2CCCC2)c(C2CCN(c3ncnc4c3[C@H](C(F)(F)F)CC(=O)N4)CC2)n1 [Example 26, (R)-4-(4-(4-ethyl-1-(2-(pyrrolidin-1-yl)ethyl)-1H-imidazol-2-yl)piperidin-1-yl)-5-(trifluoromethyl)-5,6-dihydropyrido[2,3-d]pyrimidin-7(8H)-one] showed an inhibition at 12.5 mg/kg ([4]; read-out: Mean % Inhibition FOXO3a (T32)) of 36.8%, an inhibition at 12.5 mg/kg ([4]; read-out: Mean % Inhibition pAKT (S473)) of 21.7% and an inhibition at 12.5 mg/kg ([4]; read-out: Mean % Inhibition pGSK3β (S9)) of 34.4%. For the same compound, the inhibition at 12.5 mg/kg ([4]; read-out: Mean % Inhibition pPRAS40 (T246)) was 8.1%.

C[C@@H]1CC(=O)Nc2ncnc(N3CCC(c4nc(Cl)cn4CCN4CCCC4)CC3)c21 [Example 41, (R)-4-(4-(4-chloro-1-(2-(pyrrolidin-1-yl)ethyl)-1H-imidazol-2-yl)piperidin-1-yl)-5-methyl-5,6-dihydropyrido[2,3-d]pyrimidin-7(8H)-one] gave an IC50 [5] of 0.017 µM, an IC50 [6] of 1.5 µM and an IC50 [7] greater than 20 µM.
